Results from US11447505B1, “Pyrrolo[2,3-b]pyridine compounds and their use in the treatment of cancer” (priority 2017, dated 2022).
pIC50, pKi: −log10 of the molar value. Read-outs that look alike come from different tables or passages of the source.

Legend:
[1] = biological target: T1, MRCKβ (Homo sapiens (Human), UniProt Q9Y5S2); assay: MRCKβ kinase assay (IMAP fluorescence polarization); assay type: biochemical
Description: (§1) MRCKα, MRCKβ, ROCK1 and ROCK2 Kinase Assays

[2] = biological target: MRCKα (Homo sapiens (Human), UniProt Q5VT25); assay: MRCKα kinase assay (IMAP fluorescence polarization); assay type: biochemical
Sequence of MRCKα (Q5VT25 whole entry): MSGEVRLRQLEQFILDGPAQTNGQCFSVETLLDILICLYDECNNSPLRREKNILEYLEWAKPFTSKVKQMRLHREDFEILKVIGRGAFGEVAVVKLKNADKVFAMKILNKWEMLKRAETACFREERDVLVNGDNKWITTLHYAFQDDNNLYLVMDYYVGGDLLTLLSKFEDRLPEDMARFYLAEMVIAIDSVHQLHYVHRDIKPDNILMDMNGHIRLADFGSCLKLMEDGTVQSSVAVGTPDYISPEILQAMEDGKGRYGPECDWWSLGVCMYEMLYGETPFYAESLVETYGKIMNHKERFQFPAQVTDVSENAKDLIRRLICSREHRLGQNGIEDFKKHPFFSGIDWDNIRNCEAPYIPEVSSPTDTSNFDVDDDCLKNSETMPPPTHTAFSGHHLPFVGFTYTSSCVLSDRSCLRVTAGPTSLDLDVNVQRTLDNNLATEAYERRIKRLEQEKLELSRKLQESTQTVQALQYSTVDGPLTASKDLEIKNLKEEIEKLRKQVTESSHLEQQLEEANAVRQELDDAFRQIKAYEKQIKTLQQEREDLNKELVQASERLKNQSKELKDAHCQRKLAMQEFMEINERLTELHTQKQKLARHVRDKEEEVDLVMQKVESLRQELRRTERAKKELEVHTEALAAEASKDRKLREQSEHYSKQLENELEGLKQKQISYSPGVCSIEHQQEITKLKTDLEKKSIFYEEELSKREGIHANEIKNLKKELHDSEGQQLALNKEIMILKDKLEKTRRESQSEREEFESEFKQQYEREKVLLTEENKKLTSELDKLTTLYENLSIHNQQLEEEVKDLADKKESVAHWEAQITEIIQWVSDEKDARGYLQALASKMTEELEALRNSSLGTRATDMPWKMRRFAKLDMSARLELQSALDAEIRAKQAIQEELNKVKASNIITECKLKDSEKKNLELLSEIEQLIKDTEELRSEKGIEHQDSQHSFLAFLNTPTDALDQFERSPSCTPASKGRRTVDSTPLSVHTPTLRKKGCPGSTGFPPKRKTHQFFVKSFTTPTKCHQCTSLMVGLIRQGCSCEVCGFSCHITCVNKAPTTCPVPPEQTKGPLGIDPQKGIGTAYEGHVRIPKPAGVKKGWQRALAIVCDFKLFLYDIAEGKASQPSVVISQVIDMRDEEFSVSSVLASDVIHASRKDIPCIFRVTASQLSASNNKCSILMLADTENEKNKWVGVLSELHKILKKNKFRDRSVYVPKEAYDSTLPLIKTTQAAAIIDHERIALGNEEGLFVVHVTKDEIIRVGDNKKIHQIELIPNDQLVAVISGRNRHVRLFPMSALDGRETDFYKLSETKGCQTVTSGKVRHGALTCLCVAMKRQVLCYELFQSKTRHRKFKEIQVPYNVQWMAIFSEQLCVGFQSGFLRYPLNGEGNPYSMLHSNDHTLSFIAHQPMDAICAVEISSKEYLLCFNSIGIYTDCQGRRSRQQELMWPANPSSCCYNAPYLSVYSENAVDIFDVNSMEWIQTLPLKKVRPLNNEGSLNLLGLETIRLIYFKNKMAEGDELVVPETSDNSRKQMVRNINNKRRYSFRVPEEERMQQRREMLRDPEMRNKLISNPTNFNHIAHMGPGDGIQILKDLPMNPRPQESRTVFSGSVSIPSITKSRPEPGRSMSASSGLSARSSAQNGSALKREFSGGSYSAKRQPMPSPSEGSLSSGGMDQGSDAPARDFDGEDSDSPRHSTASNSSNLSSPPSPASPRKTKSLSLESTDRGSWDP
Description: as §1

[3] = biological target: T2, ROCK1 (Homo sapiens (Human), UniProt Q13464); details: read-out: ROCK1 Average Ki; 1 μM ATP
T2 sequence (Q13464 2-1354 limits assumed): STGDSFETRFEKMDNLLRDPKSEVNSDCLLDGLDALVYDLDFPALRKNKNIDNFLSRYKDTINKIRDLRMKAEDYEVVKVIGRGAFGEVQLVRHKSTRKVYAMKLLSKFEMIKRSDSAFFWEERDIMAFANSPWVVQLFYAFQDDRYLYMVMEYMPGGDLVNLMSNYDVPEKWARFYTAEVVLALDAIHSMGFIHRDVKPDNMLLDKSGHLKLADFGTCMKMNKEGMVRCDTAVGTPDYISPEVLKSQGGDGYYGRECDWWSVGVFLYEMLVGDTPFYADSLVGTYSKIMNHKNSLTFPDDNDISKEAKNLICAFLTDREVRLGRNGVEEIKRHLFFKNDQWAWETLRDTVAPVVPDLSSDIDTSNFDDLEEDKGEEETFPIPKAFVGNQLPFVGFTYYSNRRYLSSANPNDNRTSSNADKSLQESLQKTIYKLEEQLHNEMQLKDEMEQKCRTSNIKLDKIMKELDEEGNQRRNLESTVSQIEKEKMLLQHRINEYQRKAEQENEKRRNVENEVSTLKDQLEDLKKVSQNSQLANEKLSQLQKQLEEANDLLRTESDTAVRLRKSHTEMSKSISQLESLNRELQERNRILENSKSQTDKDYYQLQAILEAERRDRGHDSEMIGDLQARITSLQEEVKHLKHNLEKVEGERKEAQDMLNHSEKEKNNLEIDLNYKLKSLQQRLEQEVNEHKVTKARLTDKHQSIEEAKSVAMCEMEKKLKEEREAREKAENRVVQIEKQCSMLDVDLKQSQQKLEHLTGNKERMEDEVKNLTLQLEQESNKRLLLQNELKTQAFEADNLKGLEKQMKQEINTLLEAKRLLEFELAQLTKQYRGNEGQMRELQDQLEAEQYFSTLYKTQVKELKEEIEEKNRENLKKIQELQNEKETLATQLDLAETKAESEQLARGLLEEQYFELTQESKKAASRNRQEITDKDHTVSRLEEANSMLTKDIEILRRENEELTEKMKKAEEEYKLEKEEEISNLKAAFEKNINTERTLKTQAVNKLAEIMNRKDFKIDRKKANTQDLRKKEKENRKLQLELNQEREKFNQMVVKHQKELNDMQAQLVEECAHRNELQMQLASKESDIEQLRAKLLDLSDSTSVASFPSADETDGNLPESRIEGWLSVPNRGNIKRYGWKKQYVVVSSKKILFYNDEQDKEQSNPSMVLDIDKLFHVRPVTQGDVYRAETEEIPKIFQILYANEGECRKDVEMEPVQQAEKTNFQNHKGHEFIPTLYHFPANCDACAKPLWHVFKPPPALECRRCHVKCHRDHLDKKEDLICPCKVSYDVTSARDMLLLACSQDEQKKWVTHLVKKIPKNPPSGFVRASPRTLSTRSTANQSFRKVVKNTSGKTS

[4] = biological target: ROCK2 (Homo sapiens (Human), UniProt O75116); assay: ROCK2 kinase assay (IMAP fluorescence polarization); assay type: biochemical
Sequence of ROCK2 (O75116 whole entry, the tested form may be a part): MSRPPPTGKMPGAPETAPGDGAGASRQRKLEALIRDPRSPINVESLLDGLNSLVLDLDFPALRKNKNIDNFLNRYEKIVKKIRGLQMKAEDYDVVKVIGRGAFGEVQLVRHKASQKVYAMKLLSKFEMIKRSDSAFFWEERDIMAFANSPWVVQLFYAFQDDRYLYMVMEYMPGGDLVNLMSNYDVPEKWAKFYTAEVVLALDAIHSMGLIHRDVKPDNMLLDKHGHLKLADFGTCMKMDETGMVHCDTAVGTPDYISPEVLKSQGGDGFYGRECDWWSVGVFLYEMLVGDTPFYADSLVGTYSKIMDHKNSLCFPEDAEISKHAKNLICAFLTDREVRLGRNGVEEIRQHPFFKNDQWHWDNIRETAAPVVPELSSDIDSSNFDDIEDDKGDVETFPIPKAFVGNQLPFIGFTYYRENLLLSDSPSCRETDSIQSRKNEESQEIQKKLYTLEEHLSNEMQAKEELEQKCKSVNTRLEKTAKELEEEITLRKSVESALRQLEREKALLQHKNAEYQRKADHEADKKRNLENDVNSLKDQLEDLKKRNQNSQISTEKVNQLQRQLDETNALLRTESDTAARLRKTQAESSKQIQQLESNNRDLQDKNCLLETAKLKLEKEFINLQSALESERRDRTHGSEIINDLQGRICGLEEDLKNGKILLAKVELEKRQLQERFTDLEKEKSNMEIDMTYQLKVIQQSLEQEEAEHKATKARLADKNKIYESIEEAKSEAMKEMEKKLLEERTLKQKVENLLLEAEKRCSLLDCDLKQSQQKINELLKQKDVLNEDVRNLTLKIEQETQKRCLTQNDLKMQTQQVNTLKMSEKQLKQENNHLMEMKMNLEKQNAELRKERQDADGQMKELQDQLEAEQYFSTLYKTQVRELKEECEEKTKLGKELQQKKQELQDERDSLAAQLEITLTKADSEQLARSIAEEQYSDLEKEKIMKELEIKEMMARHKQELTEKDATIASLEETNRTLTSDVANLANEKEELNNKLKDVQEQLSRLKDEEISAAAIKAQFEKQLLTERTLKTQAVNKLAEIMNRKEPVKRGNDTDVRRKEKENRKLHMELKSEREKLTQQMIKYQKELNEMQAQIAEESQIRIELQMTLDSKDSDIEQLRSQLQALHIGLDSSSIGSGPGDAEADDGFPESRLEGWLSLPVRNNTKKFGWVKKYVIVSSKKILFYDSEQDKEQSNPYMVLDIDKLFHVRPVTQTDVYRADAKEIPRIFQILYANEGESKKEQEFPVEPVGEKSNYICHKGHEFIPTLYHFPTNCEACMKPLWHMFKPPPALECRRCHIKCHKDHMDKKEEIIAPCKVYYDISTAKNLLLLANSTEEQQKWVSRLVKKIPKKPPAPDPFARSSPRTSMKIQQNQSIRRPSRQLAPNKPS

[5] = biological target: T2, ROCK1; assay: ROCK1 cellular assay (pMLC T18/S19 immunoblot, MDA-MB-231 cells with doxycycline inducible kinase domain); assay type: cell-based
Description: (§2) MRCKβ, ROCK1 and ROCK2 Cellular Assays
(§3) MDA-MB-231 cells expressing doxycycline inducible ROCK1, ROCK2 or MRCKβ kinase domains were plated at 1.1×10^5 cells per well of a 12 well plate. After 24 hours, cells were treated with 1 μg/ml doxycycline for 18 hours to induce kinase domain expression and then tested over a suitable concentration range with compounds of the invention for 60 minutes. Cells were then washed with PBS and lysed with Tris-SDS lysis Buffer (50 mM Tris-HCl pH7.4, 0.5% (v/v) SDS, 1×PhosStop Inhibitors (04 906 837 001; Roche) and 1×Complete Protease Inhibitors (04 693 124 001; Roche)). Whole cell lysates were clarified by passing through QIAshredder spin columns, separated by SDS-PAGE, and quantitative immunoblotting performed using a LI-COR Odyssey IR scanner to determine pMLC (T18/S19) and α-Tubulin levels.

[6] = biological target: T1, MRCKβ; assay: MRCKβ cellular assay (pMLC T18/S19 immunoblot, MDA-MB-231 cells with doxycycline inducible kinase domain); assay type: cell-based
Description: as §2, §3

[7] = biological target: T2, ROCK1; assay: biochemical
[8] = 1 μM ATP, read-out: MRCK-B Average Ki
[9] = 1 μM ATP, read-out: MRCK-a Average Ki
[10] = 1 μM ATP, read-out: ROCK2 Average Ki
[11] = MDA-MB-231 cells, doxycycline inducible kinase domain, 60 minutes, pMLC (T18/S19), read-out: Cellular assay - ROCK1 inhibition MEAN
[12] = MDA-MB-231 cells, doxycycline inducible kinase domain, 60 minutes, pMLC (T18/S19), read-out: Cellular assay - MRCK-b inhibition MEAN

| Compound | pKi [1, 8] | pKi [2, 9] | pKi [3] | pKi [4, 10] | pIC50 [5, 11] | pIC50 [6, 12] | pKi [7] | pIC50 [5] | pIC50 [6] | pKi [1] | pKi [2] | pKi [4] |
| --- | --- | --- | --- | --- | --- | --- | --- | --- | --- | --- | --- | --- |
| CCN1CCCC[C@@]12CCCN(c1ccnc3[nH]cc(-c4ccncn4)c13)C2 [Example E207, (6S)-1-ethyl-8-(3-pyrimidin-4-yl-1H-pyrrolo[2,3-b]pyridin-4-yl)-1,8-diazaspiro[5.5]undecane] | 10.40 | 10.56 | 7.70 | 8.08 | < 4.52 | 6.77 |  |  |  |  |  |  |
| CCN1CCCCC12CCCN(c1ccnc3[nH]cc(-c4nccs4)c13)C2 (centres unmarked) [Example E209, 2-[4-(1-ethyl-1,8-diazaspiro[5.5]undecan-8-yl)-1H-pyrrolo[2,3-b]pyridin-3-yl]thiazole] | 10.41 | 10.00 |  | 7.52 | < 4.52 | 6.96 | 6.90 |  |  |  |  |  |
| 3-ethyl-1-[3-(5-methylthiazol-2-yl)-1H-pyrrolo[2,3-b]pyridin-4-yl]piperidin-3-amine [Example E177] | 10.05 | 10.09 | 7.47 | 7.02 | < 4.52 | 6.56 |  |  |  |  |  |  |
| CCN1CCCCC12CCCN(c1ccnc3[nH]cc(C#N)c13)C2 (centres unmarked) [Example E211, 4-(1-ethyl-1,8-diazaspiro[5.5]undecan-8-yl)-1H-pyrrolo[2,3-b]pyridine-3-carbonitrile] | 9.45 | 9.20 | 6.61 | 7.47 |  |  |  | < 4.52 | 6.02 |  |  |  |
| Cc1csnc1-c1c[nH]c2nccc(N3CCCC4(CCCCN4)C3)c12 (centres unmarked) [Example E142, 3-[4-(1,8-diazaspiro[5.5]undecan-8-yl)-1H-pyrrolo[2,3-b]pyridin-3-yl]-4-methyl-isothiazole] | 9.69 | 9.67 |  | 4.47 | < 4.52 | 5.92 | 6.98 |  |  |  |  |  |
| CN1CCCC[C@@]12CCCN(c1ccnc3[nH]cc(-c4ccncn4)c13)C2 [Example E206, (6S)-1-methyl-8-(3-pyrimidin-4-yl-1H-pyrrolo[2,3-b]pyridin-4-yl)-1,8-diazaspiro[5.5]undecane] | 10.56 | 10.72 | 7.69 | 8.38 | < 4.52 | 6.86 |  |  |  |  |  |  |
| c1cc(-c2c[nH]c3nccc(N4CCC[C@@]5(CCCCN5)C4)c23)cnn1 [Example E174, (6S)-8-(3-pyridazin-4-yl-1H-pyrrolo[2,3-b]pyridin-4-yl)-1,8-diazaspiro[5.5]undecane] | 10.59 |  |  |  | 5.65 | 7.29 | 6.39 |  |  |  |  |  |
| c1ncc(-c2c[nH]c3nccc(N4CC[C@@]5(CCCCN5)C4)c23)cn1 [Example E126, (5S)-2-(3-pyrimidin-5-yl-1H-pyrrolo[2,3-b]pyridin-4-yl)-2,6-diazaspiro[4.5]decane] | 10.24 | 10.38 | 7.17 | 7.64 | < 4.52 | 5.90 |  |  |  |  |  |  |
| c1cc(N2CCC3(CCCN3)C2)c2c(-c3ccsn3)c[nH]c2n1 (centres unmarked) [Example E136, 3-[4-(1,7-diazaspiro[4.4]nonan-7-yl)-1H-pyrrolo[2,3-b]pyridin-3-yl]isothiazole] |  |  |  |  |  |  | 7.15 | < 4.52 | 6.34 | 9.92 | 9.68 | 7.85 |
| c1csc(-c2c[nH]c3nccc(N4CC[C@@]5(CCCCN5)C4)c23)n1 [Example E133, 2-[4-[(5S)-2,6-diazaspiro[4.5]decan-2-yl]-1H-pyrrolo[2,3-b]pyridin-3-yl]thiazole] |  |  |  |  |  |  | 7.59 |  | 6.97 | 10.52 | 10.83 | 8.19 |
| Cc1cnc(-c2c[nH]c3nccc(N4CC[C@@]5(CCCCN5)C4)c23)s1 [Example E131, 2-[4-[(5S)-2,6-diazaspiro[4.5]decan-2-yl]-1H-pyrrolo[2,3-b]pyridin-3-yl]-5-methyl-thiazole] | 10.22 | 10.68 |  | 7.60 | < 4.52 | 6.50 | 6.97 |  |  |  |  |  |
| c1ncc(-c2c[nH]c3nccc(N4CCC[C@@]5(CCCCN5)C4)c23)cn1 [Example E122, (6S)-8-(3-pyrimidin-5-yl-1H-pyrrolo[2,3-b]pyridin-4-yl)-1,8-diazaspiro[5.5]undecane] | 9.23 | 10.55 |  | 7.11 | < 4.52 | 6.99 | 6.71 |  |  |  |  |  |
| c1cc(N2CCC3(CCCCN3)C2)c2c(-c3ncsn3)c[nH]c2n1 (centres unmarked) [Example E129, 3-[4-(2,6-diazaspiro[4.5]decan-2-yl)-1H-pyrrolo[2,3-b]pyridin-3-yl]-1,2,4-thiadiazole] |  |  |  |  |  |  | 6.97 |  | 6.14 | 9.69 | 10.29 | 7.63 |
| Fc1ccc(-c2c[nH]c3nccc(N4CCCC5(CCCCN5)C4)c23)nc1 (centres unmarked) [Example E170, 8-[3-(5-fluoro-2-pyridyl)-1H-pyrrolo[2,3-b]pyridin-4-yl]-1,8-diazaspiro[5.5]undecane] | 10.00 | 9.77 |  | 6.78 |  | 6.21 | 6.25 |  |  |  |  |  |
| N#Cc1c[nH]c2nccc(N3CCC[C@@]4(CCCCN4)C3)c12 [Example E187, 4-[(6S)-1,8-diazaspiro[5.5]undecan-8-yl]-1H-pyrrolo[2,3-b]pyridine-3-carbonitrile] | 9.75 | 9.60 | 6.82 | 7.35 |  |  |  | < 4.52 | 6.11 |  |  |  |

The next lines start with results.

| pKi [1, 8] | pKi [2, 9] | pKi [3] | pKi [4, 10] | pIC50 [5, 11] | pIC50 [6, 12] | pKi [7] | Compound | pIC50 [5] | pIC50 [6] | pKi [1] | pKi [2] | pKi [4] |
| --- | --- | --- | --- | --- | --- | --- | --- | --- | --- | --- | --- | --- |
| 10.91 | 10.91 |  | 7.40 | < 4.52 | 6.85 | 7.07 | c1cc(N2CCC[C@@]3(CCCCN3)C2)c2c(-c3ncsn3)c[nH]c2n1 [Example E116, 3-[4-[(6S)-1,8-diazaspiro[5.5]undecan-8-yl]-1H-pyrrolo[2,3-b]pyridin-3-yl]-1,2,4-thiadiazole] |  |  |  |  |  |
| 10.19 | 10.19 |  | 7.07 |  | 6.63 | 6.68 | Fc1cncc(-c2c[nH]c3nccc(N4CCCC5(CCCCN5)C4)c23)c1 (centres unmarked) [Example E171, 8-[3-(5-fluoro-3-pyridyl)-1H-pyrrolo[2,3-b]pyridin-4-yl]-1,8-diazaspiro[5.5]undecane] |  |  |  |  |  |
| 10.83 | 11.31 |  | 8.32 | 4.81 | 7.88 | 7.62 | c1cc(N2CCC[C@@]3(CCCCN3)C2)c2c(-c3ccsn3)c[nH]c2n1 [Example E120, 3-[4-[(6S)-1,8-diazaspiro[5.5]undecan-8-yl]-1H-pyrrolo[2,3-b]pyridin-3-yl]isothiazole] |  |  |  |  |  |
| 9.52 | 9.80 |  | 6.99 |  | 5.82 | 6.23 | CN[C@H]1CCCN(c2ccnc3[nH]cc(-c4nccs4)c23)C1 [Example E47, (3S)-N-methyl-1-(3-thiazol-2-yl-1H-pyrrolo[2,3-b]pyridin-4-yl)piperidin-3-amine] |  |  |  |  |  |
| 9.62 | 9.49 |  | 6.63 |  | 5.81 | 7.92 | c1cc(-c2c[nH]c3nccc(N4CCC[C@H](NC5CC5)C4)c23)cnn1 [Example E46, (3S)-N-cyclopropyl-1-(3-pyridazin-4-yl-1H-pyrrolo[2,3-b]pyridin-4-yl)piperidin-3-amine] |  |  |  |  |  |
| 9.73 | 9.73 |  | 8.12 | 4.84 | 6.37 | 7.52 | c1csc(-c2c[nH]c3nccc(O[C@@H]4CCCNC4)c23)n1 [Example E212, 2-[4-[[(3R)-3-piperidyl]oxy]-1H-pyrrolo[2,3-b]pyridin-3-yl]thiazole] |  |  |  |  |  |
| 10.41 | 10.36 | 7.00 | 7.39 | < 4.52 | 6.97 |  | c1ccc(-c2c[nH]c3nccc(N4CCC[C@@]5(CCCCN5)C4)c23)nc1 [Example E139, (6S)-8-[3-(2-pyridyl)-1H-pyrrolo[2,3-b]pyridin-4-yl]-1,8-diazaspiro[5.5]undecane] |  |  |  |  |  |
| 10.09 | 10.17 |  | 8.19 |  | 7.39 | 7.74 | c1cc(N2CCCC3(CCCCN3)C2)c2c(-c3cnsc3)c[nH]c2n1 (centres unmarked) [Example E114, 4-[4-(1,8-diazaspiro[5.5]undecan-8-yl)-1H-pyrrolo[2,3-b]pyridin-3-yl]isothiazole] |  |  |  |  |  |
| 10.03 | 10.03 |  | 7.38 |  | 6.59 | 7.17 | CC1(N)CCCN(c2ccnc3[nH]cc(-c4nccs4)c23)C1 (centres unmarked) [Example E176, 3-methyl-1-(3-thiazol-2-yl-1H-pyrrolo[2,3-b]pyridin-4-yl)piperidin-3-amine] |  |  |  |  |  |
